In patent publication US7410974B2, “Halogenated Quinazolinyl nitrofurans as antibacterial agents” (Ulysses Pharmaceutical Products, Inc., priority 2003, dated 2008) one finds MIC and MBC data, which are given here for three compounds.

Values after ≈ are worked out from the molar mass of the structure shown. Like-named read-outs stand apart in the source and are kept apart here. Bounds are passed on as bounds.

The test system of one assay is E. faecium ATCC 35667. Kind of assay: MIC broth microdilution (NCCLS). The assay is classed as cell-based, Enterococcus faecium. The method, then: (§1) Minimal Inhibitory Concentration (MIC) Determination. Bacteria (primary strain panel, TABLE 1). Susceptibility tests were performed following the recommendations from the National Committee for Clinical Standards (NCCLS). The MICs were determined by a broth microdilution technique using a final volume of 100 μl of cation-adjusted Mueller Hinton Broth (MHBCA) and a bacterial inoculum of 10^5-10^6 Colony Forming Units (CFU)/ml. The inocula were verified and precisely determined by applying 10-μl drops of 10-fold dilutions onto Triptic Soy Agar plates. The CFU were counted after an incubation of 24 h at 35° C. Any experiment showing an inoculum that was more or less than 10^5-10^6 CFU/ml was rejected. Control antibiotics and test compounds were prepared at a concentration equivalent to 2-fold the highest desired final concentration. Compounds were then diluted directly in the 96-well microtiter plates by serial 2-fold dilutions using a multichannel pipette. Microtiter plates were incubated during 24 h at 35° C. and growth was recorded by using a microtiterplate reader at 650 nm as well as by visual observation. The MIC was defined as the lowest concentration of compound yielding no visible growth. […] Fastidious bacteria. The medium used for Listeria monocytogenes, Neisseria meningitidis, and Campylobacter jejuni was MHBCA containing 2% laked horse blood. The medium used for Haemophilus influenzae and Branhamella (Moraxella) catarrhalis was HTM as recommended by the NCCLS. Cultures of these fastidious bacteria were incubated at 35° C. in a 5% CO2 atmosphere. […] The medium used for Bacteroides fragilis was Wilkins Chalgren broth and growth was allowed under an anaerobic atmosphere at 35° C. for 48 hours.
In general terms: Dilution methods test growth across graded concentrations, often in twofold steps.

A further assay has as its system S. aureus ATCC 29213. Kind of assay: MIC broth microdilution (NCCLS). In kind it is cell-based, Staphylococcus aureus. The method, then: as §1
A further assay has as its system E. faecalis ATCC 29212. The assay can be described thus: MIC broth microdilution (NCCLS). The assay is classed as cell-based, Enterococcus faecalis. The method, then:
as §1

A further assay concerns MRSA strain Sa253c. The assay can be described thus: MIC broth microdilution, antibiotic resistant strain panel. In kind it is cell-based, Staphylococcus aureus. The following applies: multi-resistant MRSA strain Sa253c. As for the experimental part: as §1
(§2) Finally, compounds were also tested against populations of various clinical strains (antibiotic resistant strain panel, TABLE 1).

For the next assay, the system named is MRSA strain Sa249c. The assay is described as above. The assay is classed as cell-based, Staphylococcus aureus. The following applies: multi-resistant MRSA strain Sa249c. The method, then: as §1, §2
For a further assay, the system named is MRSA strain Sa228c. The description is as above. Particulars: multi-resistant MRSA strain Sa228c. In kind it is cell-based, Staphylococcus aureus. As for the experimental part: as §1, §2
The test system of the next assay is MRSA strain Sa224c. The description is as above. Particulars: multi-resistant MRSA strain Sa224c. The assay is classed as cell-based, Staphylococcus aureus. The method, then: as §1, §2
Another assay deals with MRSA strain Sa220c. Described as above. The assay is classed as cell-based, Staphylococcus aureus. The following applies: multi-resistant MRSA strain Sa220c. The method, then: as §1, §2
The next assay concerns MRSA strain Sa211c. Described as above. The assay is classed as cell-based, Staphylococcus aureus. The following applies: multi-resistant MRSA strain Sa211c. The method, then: as §1, §2
The subject of a further assay is MRSA strain Sa248c. The description is as above. The assay is classed as cell-based, Staphylococcus aureus. Particulars: multi-resistant MRSA strain Sa248c. The method, then: as §1, §2
The test system of another assay is MRSA strain Sa212c. The assay is described as above. In kind it is cell-based, Staphylococcus aureus. Particulars: multi-resistant MRSA strain Sa212c. As for the experimental part: as §1, §2
In assay [1] the test system is S. epidermidis ATCC 12228. The assay can be described thus: MIC broth microdilution (NCCLS). In kind it is cell-based, Staphylococcus epidermidis. The method, then:
as §1

For assay [2], the system named is S. saprophyticus ATCC 15305. Kind of assay: MIC broth microdilution (NCCLS). In kind it is cell-based, Staphylococcus saprophyticus. As for the experimental part: as §1
The next assay concerns S. aureus MRSA COL. Kind of assay: MIC broth microdilution (NCCLS). The assay is classed as cell-based, Staphylococcus aureus. The method, then:
as §1, with “hours. […]” for “hours.”

Assay [3] concerns S. saprophyticus ATCC 15305. Kind of assay: Minimal Bactericidal Concentration (MBC). In kind it is cell-based. Particulars: Staphylococcus saprophyticus, ATCC15305. As for the experimental part:
Minimal Bactericidal Concentration (MBC). After the microtiter plates were read for the determination of the MIC, a 10-μl sample of each clear well (at least 5 wells without visible growth) was applied onto TSA plates for viable counts determination.
Petri dishes were incubated at 35° C. for exactly 24 h and bacterial colonies were counted.

In the next assay the test system is E. faecium VanA. The assay can be described thus: MIC broth microdilution, antibiotic resistant strain panel. Particulars: Enterococcus faecium. The assay is classed as cell-based. As for the experimental part:
as §1, §2

The next assay deals with MRSA strain Sa234c. Described as above. In kind it is cell-based, Staphylococcus aureus. The following applies: multi-resistant MRSA strain Sa234c. The method, then:
as §1, §2

For assay [4], the system named is Y. enterocolytica ATCC 23715. Kind of assay: MIC broth microdilution (NCCLS). The assay is classed as cell-based, Yersinia enterocolytica. The method, then:
as §1

In another assay the test system is A. baumannii ATCC 19606. Kind of assay: MIC broth microdilution (NCCLS). The assay is classed as cell-based, Acinetobacter baumannii. As for the experimental part: as §1
A further assay deals with E. coli ATCC 25922. The assay can be described thus: MIC broth microdilution (NCCLS). The assay is classed as cell-based, Escherichia coli. Particulars: E. coli ATCC 25922 (Reference). As for the experimental part: as §1
Setting [5] is: Staphylococcus aureus, read-out: MIC.

Take `Cc1onc(-c2ccccc2)c1C(=O)N[C@@H]1C(=O)N2[C@@H]1SC(C)(C)[C@@H]2C(=O)O` [Oxacillin]: the MIC in the assay on E. faecium ATCC 35667 (Enterococcus faecium, ATCC35667, E. faecium ATCC 35667, read-out: MIC) is 32 µg/mL (≈ 79.7 µM); in the assay with S. aureus ATCC 29213 (Staphylococcus aureus, ATCC29213, S. aureus ATCC 29213, read-out: MIC), 0.12 to 0.25 µg/mL (≈ 0.299 to 0.623 µM); with E. faecalis ATCC 29212 (Enterococcus faecalis, ATCC29212, E. faecalis ATCC 29212, read-out: MIC), 8 to 16 µg/mL (≈ 19.9 to 39.9 µM); in the assay on MRSA strain Sa253c (setting [5]), 1020 µg/mL (≈ 2550 µM); in the assay on MRSA strain Sa249c (setting [5]), 512 µg/mL (≈ 1280 µM); with MRSA strain Sa228c (setting [5]) it was 128 µg/mL (≈ 319 µM). The minimal inhibitory concentration (MIC) is 32 to 64 µg/mL (≈ 79.7 to 159 µM) in the assay on MRSA strain Sa224c (setting [5]); 8 to 16 µg/mL (≈ 19.9 to 39.9 µM) with MRSA strain Sa220c (setting [5]); 16 to 32 µg/mL (≈ 39.9 to 79.7 µM) in the assay on MRSA strain Sa211c (setting [5]); 512 µg/mL (≈ 1280 µM) with MRSA strain Sa248c (setting [5]); 16 µg/mL (≈ 39.9 µM) in the assay on MRSA strain Sa212c (setting [5]); 0.12 µg/mL (≈ 0.299 µM) in [1] (Staphylococcus epidermidis, ATCC12228, S. epidermidis ATCC 12228, read-out: MIC). In addition, the minimal inhibitory concentration (MIC) was 1 µg/mL (≈ 2.49 µM) in [2] (Staphylococcus saprophyticus, ATCC15305, S. saprophyticus ATCC 15305, read-out: MIC); greater than 128 µg/mL with S. aureus MRSA COL (Staphylococcus aureus, MRSA); 512 µg/mL (≈ 1280 µM) in the assay on S. aureus MRSA COL (Staphylococcus aureus, MRSA, S. aureus MRSA COL, read-out: MIC).
As to `CN[C@H](CC(C)C)C(=O)N[C@H]1C(=O)N[C@@H](CC(N)=O)C(=O)N[C@H]2C(=O)N[C@H]3C(=O)N[C@H](C(=O)N[C@H](C(=O)O)c4cc(O)cc(O)c4-c4cc3ccc4O)[C@H](O)c3ccc(c(Cl)c3)Oc3cc2cc(c3O[C@@H]2O[C@H](CO)[C@@H](O)[C@H](O)[C@H]2O[C@H]2C[C@](C)(N)[C@H](O)[C@H](C)O2)Oc2ccc(cc2Cl)[C@H]1O` [Vancomycin], the MIC was 0.5 µg/mL (≈ 0.345 µM) against E. faecium ATCC 35667 (Enterococcus faecium, ATCC35667); 0.5 to 2 µg/mL (≈ 0.345 to 1.38 µM) against S. aureus ATCC 29213 (Staphylococcus aureus, ATCC29213); 2 µg/mL (≈ 1.38 µM) with E. faecalis ATCC 29212 (Enterococcus faecalis, ATCC29212); 1 to 2 µg/mL (≈ 0.69 to 1.38 µM) in assay [1] (Staphylococcus epidermidis, ATCC12228); greater than 128 µg/mL against E. faecium VanA; 1 µg/mL (≈ 0.69 µM) in assay [2] (Staphylococcus saprophyticus, ATCC15305). The compound also had an MIC in the assay with S. aureus MRSA COL (Staphylococcus aureus, MRSA) of 1 to 2 µg/mL (≈ 0.69 to 1.38 µM). In addition, in assay [3], the MBC was determined as 1 µg/mL (≈ 0.69 µM).
Take Gentamicin: the minimal inhibitory concentration (MIC) in the assay with E. faecium ATCC 35667 (E. faecium ATCC 35667) is 4 to 16 µg/mL; in the assay with S. aureus ATCC 29213 (S. aureus ATCC 29213) it was 0.5 to 2 µg/mL; with E. faecalis ATCC 29212 (E. faecalis ATCC 29212), 4 to 16 µg/mL; in the assay on MRSA strain Sa253c it was greater than 128 µg/mL; in the assay on MRSA strain Sa249c, greater than 128 µg/mL; against MRSA strain Sa228c, 32 µg/mL. Also, the minimal inhibitory concentration (MIC) against MRSA strain Sa224c is 0.25 µg/mL; in the assay on MRSA strain Sa220c, 0.5 µg/mL; with MRSA strain Sa234c, 1 µg/mL; against MRSA strain Sa211c, 1 µg/mL; against MRSA strain Sa248c, greater than 128 µg/mL; against MRSA strain Sa212c, 0.25 µg/mL. Moreover, the MIC in assay [1] (S. epidermidis ATCC 12228) was 0.06 to 0.25 µg/mL; in [4], 2 µg/mL; in the assay on A. baumannii ATCC 19606 it was 32 µg/mL; in assay [2] (S. saprophyticus ATCC 15305) it was 0.06 µg/mL; in the assay with E. coli ATCC 25922 it was 0.5 to 2 µg/mL; in the assay with S. aureus MRSA COL (S. aureus MRSA COL), 0.5 µg/mL.

A word on the MIC: it is the least concentration at which growth counts as inhibited. In general, MBC refers to the lowest tested concentration that kills the bacteria rather than only halting them. Low values mean more potent killing, high ones less potent killing.
